In one assay the target is wild type RET (Homo sapiens (Human), UniProt P07949). In words: RET Wild Type Assay at KM (Caliper electrophoretic mobility shift). In kind it is biochemical. The conditions noted are these: 25 μM ATP (KM).
A further assay addresses RET V804L (Homo sapiens (Human), UniProt P07949, V804L). In words: RET V804L Gatekeeper Mutant Assay at KM (Caliper electrophoretic mobility shift). The format is biochemical. The conditions noted are these: 10 μM ATP (KM), read-out: V480L Mutant.

Some results are limits rather than exact numbers.

Sequence of RET V804L (P07949 29-1114 V804L): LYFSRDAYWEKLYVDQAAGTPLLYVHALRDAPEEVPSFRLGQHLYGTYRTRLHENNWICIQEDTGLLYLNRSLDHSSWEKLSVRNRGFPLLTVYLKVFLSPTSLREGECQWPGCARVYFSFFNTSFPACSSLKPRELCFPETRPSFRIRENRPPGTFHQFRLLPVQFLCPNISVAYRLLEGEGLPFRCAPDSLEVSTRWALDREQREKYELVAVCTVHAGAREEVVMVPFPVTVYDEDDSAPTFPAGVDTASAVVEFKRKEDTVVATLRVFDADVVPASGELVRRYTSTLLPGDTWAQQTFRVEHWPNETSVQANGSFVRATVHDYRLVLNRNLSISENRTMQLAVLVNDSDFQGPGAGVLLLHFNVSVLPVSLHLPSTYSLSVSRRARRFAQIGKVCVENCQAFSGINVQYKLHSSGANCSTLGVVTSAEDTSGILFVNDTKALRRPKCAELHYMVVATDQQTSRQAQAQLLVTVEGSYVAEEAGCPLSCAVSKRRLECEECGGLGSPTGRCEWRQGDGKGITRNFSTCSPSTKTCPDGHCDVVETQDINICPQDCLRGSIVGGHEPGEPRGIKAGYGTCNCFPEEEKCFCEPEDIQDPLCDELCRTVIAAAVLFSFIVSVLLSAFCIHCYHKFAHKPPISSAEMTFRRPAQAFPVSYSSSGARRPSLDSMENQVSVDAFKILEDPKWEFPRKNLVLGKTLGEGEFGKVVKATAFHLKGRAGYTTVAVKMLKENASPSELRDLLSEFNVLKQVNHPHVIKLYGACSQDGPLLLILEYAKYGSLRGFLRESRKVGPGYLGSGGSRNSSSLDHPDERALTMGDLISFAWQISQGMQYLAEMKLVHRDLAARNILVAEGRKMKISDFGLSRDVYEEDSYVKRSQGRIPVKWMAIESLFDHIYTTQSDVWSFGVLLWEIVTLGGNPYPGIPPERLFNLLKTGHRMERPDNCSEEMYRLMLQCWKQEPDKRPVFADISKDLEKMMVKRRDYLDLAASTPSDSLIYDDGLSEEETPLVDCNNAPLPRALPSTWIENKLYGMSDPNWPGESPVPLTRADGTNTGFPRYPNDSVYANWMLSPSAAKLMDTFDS
Sequence of wild type RET (P07949 29-1114): as the sequence (P07949 29-1114 V804L) above, with L776V counted along it

`CCOC1(C(=O)N[C@@H](C)c2ccc(-n3cc(F)cn3)nc2)CN(c2cc(C)cc(Nc3cc(C)[nH]n3)n2)C1` [Compound 194, (S)-3-ethoxy-N-(1-(6-(4-fluoro-1H-pyrazol-1-yl)pyridin-3-yl)ethyl)-1-(4-methyl-6-((5-methyl-1H-pyrazol-3-yl)amino)pyridin-2-yl)azetidine-3-carboxamide]: the IC50 on wild type RET and at RET V804L was less than 10 nM in each case.

For the compound `COC1(C(=O)NCc2ccc(-n3cc(F)cn3)nc2)CCN(c2nc(C)cc(Nc3cc(C)[nH]n3)n2)CC1` [Compound 195], the IC50 on wild type RET and at RET V804L was less than 10 nM in each case.

Take `COC1(C(=O)N[C@@H](C)c2ccc(-n3cc(F)cn3)nc2)CCN(c2nccc(Nc3cc(C)[nH]n3)n2)CC1` [Compound 196]: the IC50 on wild type RET and at RET V804L was less than 10 nM throughout.

`CCOC1(C(=O)N[C@@H](C)c2ccc(-n3cc(F)cn3)nc2)CN(c2nc(C)cc(Nc3cc(C)[nH]n3)n2)C1` [Compound 197]: the IC50 on wild type RET and at RET V804L was less than 10 nM in each case.

Turning to `CO[C@@]1(C(=O)N[C@@H](C)c2ccc(-n3cc(F)cn3)nc2)CN(c2nc(C)cc(Nc3cc(C)[nH]n3)n2)[C@@H]1C` [Compound 198], the IC50 on wild type RET and on RET V804L was less than 10 nM throughout.

As to `CO[C@]1(C(=O)N[C@@H](C)c2ccc(-n3cc(F)cn3)nc2)CN(c2nc(C)cc(Nc3cc(C)[nH]n3)n2)[C@H]1C` [Compound 199], the IC50 at wild type RET and at RET V804L was less than 10 nM throughout.

For `Cc1cc(Nc2cc(C)[nH]n2)nc(N2CCC(F)(C(=O)N[C@@H](C)c3ccc(-n4cc(F)cn4)nc3)CC2)c1` [Compound 200], the IC50 at wild type RET and at RET V804L was less than 10 nM each time.

On to `COC1(C(=O)N[C@@H](C)c2ccc(-n3cccn3)nc2)CN(c2cc(C(F)F)cc(Nc3cc(C)[nH]n3)n2)C1` [Compound 201], for which the IC50 at wild type RET and on RET V804L was less than 10 nM throughout.

In the case of `COC1(C(=O)N[C@@H](C)c2ccc(-n3cc(F)cn3)nc2)CN(c2nc(Nc3cc(C)[nH]n3)cc(C)c2F)C1` [Compound 202], the IC50 at wild type RET and on RET V804L was less than 10 nM throughout.

Regarding `COC1(C(=O)NCc2ccc(-n3cc(C(F)F)cn3)nc2)CN(c2nc(C)cc(Nc3cc(C)[nH]n3)n2)C1` [Compound 203], the IC50 at wild type RET and at RET V804L was 10 to 100 nM each time.

As for `COC1(C(=O)NCc2cnc(-n3ccc(C(F)F)n3)cn2)CN(c2nc(C)cc(Nc3cc(C)[nH]n3)n2)C1` [Compound 205], the IC50 at wild type RET was 10 to 100 nM; at RET V804L, less than 10 nM.

For `Cc1cc(Nc2cc(C)[nH]n2)nc(N2CCC(CC#N)(C(=O)N[C@@H](C)c3ccc(-n4cccn4)nc3)CC2)n1` [Compound 206], the IC50 at wild type RET and at RET V804L was less than 10 nM throughout.

For the compound `COC1(C(=O)NCc2ccc(-n3cccn3)nc2)CCN(c2nc(Nc3cc(C)[nH]n3)cc(C)c2C#N)CC1` [Compound 207], the IC50 at wild type RET and on RET V804L was less than 10 nM throughout.

For the compound `COC1(C(=O)NCc2ccc(-n3cc(F)cn3)nc2)CN(c2cc(C(F)F)cc(Nc3cc(C)[nH]n3)n2)C1` [Compound 208], the IC50 on wild type RET and at RET V804L was less than 10 nM each time.

With `CCC1(C(=O)NCc2ccc(-n3nc(C)cc3C)nc2)CCN(c2nc(C)cc(Nc3cc(C)[nH]n3)n2)CC1` [Compound 209], the IC50 on wild type RET and on RET V804L was less than 10 nM throughout.

Take `Cc1cc(Nc2cc(C(F)F)cc(N3CC(F)(C(=O)N[C@@H](C)c4ccc(-n5cc(F)cn5)nc4)C3)n2)n[nH]1` [Compound 210]: the IC50 at wild type RET and at RET V804L was less than 10 nM each time.

For the compound `COC1(C(=O)NCc2ccc(-n3nc(C)cc3C)nc2)CCN(c2cc(C)cc(Nc3cc(C)[nH]n3)n2)CC1` [Compound 211], the IC50 at wild type RET and at RET V804L was less than 10 nM each time.

In the case of `COC1(C(=O)N[C@@H](C)c2ccc(-n3cc(F)cn3)nc2)CN(c2nc(Nc3cc(C)[nH]n3)cc(C)c2C#N)C1` [Compound 212], the IC50 on wild type RET and on RET V804L was less than 10 nM throughout.

As for `COCCC1(C(=O)NCc2ccc(-n3cccn3)nc2)CCN(c2nc(C)cc(Nc3cc(C)[nH]n3)n2)CC1` [Compound 213], the IC50 at wild type RET and on RET V804L was less than 10 nM throughout.

For `COC1(C(=O)N(C)[C@@H](C)c2ccc(-n3cccn3)nc2)CCN(c2nc(C)cc(Nc3cc(C)[nH]n3)n2)CC1` [Compound 214], the IC50 at wild type RET and at RET V804L was less than 10 nM throughout.

For `COC1(C(=O)NCc2ccc(-n3nc(C)cc3C)nc2)CCN(c2nc(C)cc(Nc3cc(C)[nH]n3)n2)CC1` [Compound 215], the IC50 on wild type RET and at RET V804L was less than 10 nM in each case.

As to `COC1(C(=O)N[C@@H](C)c2ccc(-n3cc(F)cn3)nc2)CCN(c2cc(C)cc(Nc3cc(C)[nH]n3)n2)CC1` [Compound 216], the IC50 on wild type RET and on RET V804L was less than 10 nM in each case.

As to `Cc1cc(Nc2cc(C)[nH]n2)nc(N2CCC(CO)(C(=O)N[C@@H](C)c3ccc(-n4cc(F)cn4)nc3)CC2)c1` [Compound 217], the IC50 on wild type RET and at RET V804L was less than 10 nM each time.

Regarding `Cc1cc(Nc2cc(C)[nH]n2)nc(N2CCC(CO)(C(=O)N[C@@H](C)c3ccc(-n4cc(F)cn4)nc3)CC2)n1` [Compound 219], the IC50 on wild type RET and at RET V804L was less than 10 nM throughout.

As to `COC1(C(=O)N[C@@H](C)c2ccc(-n3cc(F)cn3)nc2)CCN(c2cc(C)nc(Nc3cc(C)[nH]n3)n2)CC1` [Compound 220], the IC50 at wild type RET and on RET V804L was less than 10 nM throughout.

For `COC1(C(=O)N[C@@H](C)c2cnc(-n3cc(F)cn3)cn2)CCN(c2nc(C)cc(Nc3cc(C)[nH]n3)n2)CC1` [Compound 221], the IC50 at wild type RET and on RET V804L was less than 10 nM in each case.

As to `COC1(C(=O)N[C@@H](C)c2ccc(-n3cccn3)nc2)CCN(c2nc(Nc3cc(C)[nH]n3)cc(C)c2C#N)CC1` [Compound 222], the IC50 on wild type RET and on RET V804L was less than 10 nM in each case.

As to `COC1(C(=O)N[C@@H](C)c2ccc(-n3cc(F)cn3)nc2)CN(c2cc(C(F)F)cc(Nc3cc(C)[nH]n3)n2)C1` [Compound 223], the IC50 at wild type RET and on RET V804L was less than 10 nM throughout.

Take `Cc1cc(N2CCC(CC#N)(C(=O)N[C@@H](C)c3ccc(-n4cc(F)cn4)nc3)CC2)nc(Nc2cc(C)[nH]n2)n1` [Compound 224]: the IC50 at wild type RET and at RET V804L was less than 10 nM each time.

For the compound `Cc1cc(Nc2cc(C3CC3)[nH]n2)nc(N2CCC(C)(C(=O)N[C@@H](C)c3ccc(-n4cc(F)cn4)nc3)CC2)c1` [Compound 225], the IC50 at wild type RET and at RET V804L was less than 10 nM each time.

On to `COC1(C(=O)NCc2ccc(-n3cc(F)cn3)nc2)CCN(c2nc(Nc3cc(C)[nH]n3)cc(C)c2C#N)CC1` [Compound 226], for which the IC50 at wild type RET and on RET V804L was less than 10 nM throughout.

Take `COC1(C(=O)N[C@@H](C)c2ccc(-n3cc(F)cn3)nc2)CCN(c2nc(Nc3cc(C)[nH]n3)cc(C)c2C#N)CC1` [Compound 227]: the IC50 on wild type RET and on RET V804L was less than 10 nM each time.

For `Cc1cc(Nc2cc(C)[nH]n2)nc(N2CCC(OCC(F)(F)F)(C(=O)NCc3ccc(-n4cccn4)nc3)CC2)n1` [Compound 228], the IC50 at wild type RET and on RET V804L was less than 10 nM in each case.
